Here are results for 66 molecules from publication PMC6792352, “Limited Chemical Structural Diversity Found to Modulate Thyroid Hormone Receptor in the Tox21 Chemical Library” (Environmental Health Perspectives, 2019).

This data set in a line: in vitro. The following applies: rat, gh3-tre-luc cells.

Where a name gives a salt, the structure may show the parent alone. Positions of bridges follow the written chain, without caps; N, C: chain ends. Residues, ends and D or L forms follow the SMILES beside them. A value given as a limit tells only on which side of the number the result lay.

The term CC50 denotes the concentration at which the toxic effect on the cells reaches its halfway point. Higher therefore signals better tolerance by the cells. In turn, `NC[C@H]1O[C@H](O[C@H]2[C@H](O)[C@@H](O[C@H]3O[C@H](CO)[C@@H](O)[C@H](N)[C@H]3O)[C@H](N)C[C@@H]2N)[C@H](N)C[C@@H]1O` [Tobramycin] yielded a 50% cytotoxic concentration (CC50) at 24 h (AC50 (uM) modified / 1000) greater than 20 µM. Same read-out and setting: in the case of `Cc1c(C)c2c(c(C)c1OC(=O)c1cccnc1)CC[C@@](C)(CCC[C@H](C)CCC[C@H](C)CCCC(C)C)O2` (racemic) [DL-alpha Tocopheryl nicotinate] it was greater than 50 µM. In the case of `CC(=O)OO` [Peracetic acid], under “AC50 (uM) modified / 1000, Tox21_110001=Tox21_112402, viability, 1 nM T3 present, 24 h”, the 50% cytotoxic concentration (CC50) at 24 h was greater than 50 µM. For the setting “AC50 (uM) modified / 1000”, `O=C(O)Cc1cc(I)c(Oc2ccc(O)c(I)c2)c(I)c1` [Tiratricol] came in with a CC50 at 24 h greater than 20 µM. Still for that read-out and setting: in the case of `Cc1cccc(N(C)C(=S)Oc2ccc3c(c2)CCC3)c1` [Tolindate] it was greater than 50 µM. As for `Oc1ccc2c3c1O[C@H]1[C@@H](O)C=C[C@H]4[C@@H](C2)NCC[C@@]341` [N-Normorphine hydrochloride], where the note is “AC50 (uM) modified / 1000, Tox21_110001=Tox21_112862, viability, 1 nM T3 present, 24 h”, the CC50 at 24 h is greater than 100 µM.

In turn, `Cc1c(N=C=O)cccc1N=C=O` [Toluene-2,6-diisocyanate] yielded a CC50 at 24 h (AC50 (uM) modified / 1000) greater than 90 µM. For the molecule `CCCN(CCC)S(=O)(=O)c1ccc(C(=O)O)cc1` [Probenecid], for the setting “AC50 (uM) modified / 1000”, the CC50 at 24 h was greater than 90 µM.

In turn, `CC(=O)N[C@@H]([C@@H](O)[C@H](O)[C@H](O)CO)[C@@H](O)CC(=O)C(=O)O` [Aceneuramic acid] gave a CC50 at 24 h (AC50 (uM) modified / 1000) greater than 50 µM. On to `CN(C)C(=O)Oc1cc(OC(=O)N(C)C)cc(C(O)CNC(C)(C)C)c1` (stereo not shown) [Bambuterol hydrochloride], for which the CC50 at 24 h (AC50 (uM) modified / 1000) is greater than 20 µM. Still for that read-out and setting: in the case of `Cc1cccc(C)c1NC(=O)CN1CCCC1=O` [Nefiracetam] it was greater than 50 µM; in that of `COc1ccc2sc(C(=O)Nc3nnn[nH]3)c(OC(C)C)c2c1` [CI-959], 6.07 µM. Same read-out and setting: with `COc1cc(OC)c2ccc(=O)oc2c1` [5,7-Dimethoxy-2H-chromen-2-one] the figure was greater than 90 µM; with `O=C(O)c1ccc2cc(C(=O)O)ccc2c1` [2,6-Naphthalenedicarboxylic acid], greater than 90 µM.

Take `COc1cccc(CCc2ccccc2OCC(CN(C)C)OC(=O)CCC(=O)O)c1` (stereo not shown) [Sarpogrelate hydrochloride]: the midpoint of cytotoxicity (AC50 (uM) modified / 1000), the CC50 at 24 h, lay at 17.2 µM.

Take `CC(=O)CC(c1ccc(Cl)cc1)c1c(O)c2ccccc2oc1=O` (stereo not shown) [Coumachlor]: the half-maximal cytotoxic concentration (CC50) at 24 h (AC50 (uM) modified / 1000, Tox21_110001=Tox21_301860, viability, 1 nM T3 present, 24 h) is greater than 100 µM. Turning to `C=Cc1ccc(S(=O)(=O)O)cc1` [Sodium 4-vinylbenzenesulfonate], the half-maximal cytotoxic concentration (CC50) at 24 h (AC50 (uM) modified / 1000) stood at 31.8 µM. As to `C=C1/C(=C\C=C2/CCC[C@]3(C)[C@@H]([C@H](C)CCCC(C)(C)O)CC[C@@H]23)C[C@@H](O)C[C@@H]1O` [Calcitriol], half-maximal cytotoxicity (AC50 (uM) modified / 1000) (CC50 at 24 h) was put at 20.1 µM. The molecule `CC(=O)c1cnccn1` [Acetylpyrazine] showed a half-maximal cytotoxic concentration (CC50) at 24 h (AC50 (uM) modified / 1000) greater than 100 µM. Turning to `CC(C)(Sc1cc(C(C)(C)C)c(O)c(C(C)(C)C)c1)Sc1cc(C(C)(C)C)c(O)c(C(C)(C)C)c1` [Probucol], the CC50 at 24 h (AC50 (uM) modified / 1000) was greater than 20 µM. `C1COCO1` [1,3-Dioxolane]: the 50% cytotoxic concentration (CC50) at 24 h (AC50 (uM) modified / 1000) was greater than 90 µM. The same measure, in the same setting: with `CCCCCC[C@@H](O)C/C=C\CCCCCCCC(=O)OCC(O)CO` (stereo partly shown) [Glyceryl monoricinoleate] the figure was greater than 90 µM. On the same count and under the same terms, with `CCCCCCCCOS(=O)(=O)O` [Sodium octyl sulfate] the figure was greater than 90 µM; with `CCc1cc(C(N)=S)ccn1` [Ethionamide], greater than 50 µM. Molecule `COC(N)=O` [Methyl carbamate] gave a CC50 at 24 h (AC50 (uM) modified / 1000) greater than 90 µM. On the same count and under the same terms, with `Cc1ncc(CNC(=O)N(CCCl)N=O)c(N)n1` [Nimustine] the figure was greater than 50 µM; with `CC(=O)CC(=O)Nc1ccccc1C` [N-(2-Methylphenyl)-3-oxobutanamide], greater than 90 µM.

On to `CC(C)(C)C(=O)CCl` [1-Chloropinacolone], for which the CC50 at 24 h (AC50 (uM) modified / 1000) is greater than 90 µM.

`FC(F)C(F)(F)OCC(Cn1cncn1)c1ccc(Cl)cc1Cl` (stereo not shown) [Tetraconazole] yielded a CC50 at 24 h (AC50 (uM) modified / 1000) greater than 90 µM.

For `CCCCOC(=O)C(=O)Nc1cccc(-c2nnn[nH]2)c1` [Tazanolast], the CC50 at 24 h (AC50 (uM) modified / 1000) was greater than 50 µM. Same read-out and setting: in the case of `NCCCC[C@H](NC(=O)[C@@H]1CCCN1C(=O)[C@@H]1CSSC[C@H](N)C(=O)N[C@@H](Cc2ccccc2)C(=O)N[C@@H](Cc2ccccc2)C(=O)N[C@@H](CCC(N)=O)C(=O)N[C@@H](CC(N)=O)C(=O)N1)C(=O)NCC(N)=O` [Felypressin] (H-CFFQNCPKG-NH2; disulfide 1-6) it was greater than 50 µM; in that of `CC(C)(C)c1n[nH]c(=S)n(N)c1=O` [4-Amino-6-tert-butyl-3-thioxo-3,4-dihydro-1,2,4-triazin-5(2H)-one], greater than 90 µM.

The molecule `COC1CC(=C(c2cccs2)c2cccs2)C[N+](C)(C)C1` (stereo not shown) [Timepidium bromide] registered a CC50 at 24 h (AC50 (uM) modified / 1000, Tox21_110001=Tox21_112659, viability, 1 nM T3 present, 24 h) greater than 50 µM. On to `CC1(C)C2CC[C@]3(C)[C@H](C(=O)C=C4[C@@H]5C[C@@](C)(C(=O)O)CC[C@]5(C)CC[C@]43C)[C@@]2(C)CC[C@@H]1O[C@H]1O[C@H](C(=O)O)[C@@H](O)[C@H](O)[C@H]1O[C@@H]1O[C@H](C(=O)O)[C@@H](O)[C@H](O)[C@H]1O` (stereo partly shown) [Glycyrrhizic acid, monosodium salt], for which the CC50 at 24 h (AC50 (uM) modified / 1000) is greater than 50 µM. Still for that read-out and setting: with `CC(C)c1cccc(O)c1` [3-Isopropylphenol] the figure was greater than 100 µM. The same measure, in the same setting: in the case of `CC1=CC(=O)CC(C)(C)[C@@]1(O)/C=C/C(C)=C\C(=O)O` [Abscisic acid] it was greater than 90 µM. The same measure, in the same setting: in the case of `OCC(CO)N[C@H]1C[C@](O)(CO)[C@@H](O)[C@H](O)[C@H]1O` [Voglibose] it was greater than 50 µM; in that of `CCOC(=O)/C=C/c1ccccc1` [Ethyl cinnamate], greater than 90 µM; in that of `Oc1ccc2[nH]cc(CCCCN3CC=C(c4ccccc4)CC3)c2c1` [Roxindole], 7.71 µM.

In the case of `O=C1CCCCCCCCCCCN1` [Azacyclotridecan-2-one], under “AC50 (uM) modified / 1000”, the CC50 at 24 h was greater than 90 µM. For `CCc1cc2c(s1)-n1c(C)nnc1CN=C2c1ccccc1Cl` [Etizolam], the CC50 at 24 h (AC50 (uM) modified / 1000, Tox21_110001=Tox21_112931, viability, 1 nM T3 present, 24 h) is greater than 50 µM. For the setting “AC50 (uM) modified / 1000”, `C=C(C)C(=O)OCCC(F)(F)C(F)(F)C(F)(F)C(F)(F)C(F)(F)C(F)(F)F` [6:2 Fluorotelomer methacrylate] yielded a CC50 at 24 h greater than 90 µM. The molecule `CCCCCCCC/C=C/CCCOC(C)=O` [(E)-4-Tridecen-l-yl acetate] displayed a half-maximal cytotoxic concentration (CC50) at 24 h (AC50 (uM) modified / 1000) greater than 90 µM.

The molecule `O=C1CCCc2ccccc21` [1,2,3,4-Tetrahydronaphthalen-1-one] registered a CC50 at 24 h (AC50 (uM) modified / 1000) greater than 90 µM. On the same count and under the same terms, in the case of `CCOc1cc([N+](=O)[O-])c(OCC)cc1N1CCOCC1` [4-(2,5-Diethoxy-4-nitrophenyl)morpholine] it was greater than 90 µM; in that of `CC[C@H](C)[C@@H](C(=O)O)n1sc2ccccc2c1=O` [(2S,3S)-3-Methyl-2-(3-oxo-1,2-benzothiazol-2(3H)-yl)pentanoic acid], greater than 90 µM; in that of `Nc1ccc(Br)cc1` [4-Bromoaniline], greater than 90 µM. On the same count and under the same terms, in the case of `CN1C[C@H](CNC(=O)OCc2ccccc2)C[C@@H]2c3cccc4c3c(cn4C)C[C@H]21` [Metergoline] it was 8.07 µM. Still for that read-out and setting: with `OCCCC1CCCCC1` [3-Cyclohexylpropan-1-ol] the figure was greater than 90 µM. On to `CNC(=S)S` [Metam-sodium hydrate], for which, where the note is “AC50 (uM) modified / 1000, Tox21_110001=Tox21_300736, viability, 1 nM T3 present, 24 h”, the 50% cytotoxic concentration (CC50) at 24 h was greater than 90 µM. Turning to `CC(C)(C)C(=O)O` [2,2-Dimethylpropanoic acid], the CC50 at 24 h (AC50 (uM) modified / 1000) is greater than 90 µM. As for `CCCCCCCCCCCCCCC(Br)C(=O)O` (stereo not shown) [2-Bromohexadecanoic acid], the CC50 at 24 h (AC50 (uM) modified / 1000) is greater than 90 µM. In the case of `CC/C=C\C/C=C\C/C=C\C/C=C\C/C=C\CCCC(=O)O` [Eicosapentaenoic acid], the CC50 at 24 h (AC50 (uM) modified / 1000) was greater than 50 µM. For the molecule `C[C@]12CC[C@@H]3c4ccc(OC(=O)N(CCCl)CCCl)cc4CC[C@H]3[C@@H]1CC[C@@H]2O` [Estramustine], where the note is “AC50 (uM) modified / 1000, Tox21_110001=Tox21_112207, viability, 1 nM T3 present, 24 h”, the CC50 at 24 h was greater than 50 µM. The molecule `Cc1ccccn1` [2-Methylpyridine] yielded a CC50 at 24 h (AC50 (uM) modified / 1000) greater than 90 µM. Same read-out and setting: in the case of `CCCCCCOC(=O)C(C)C` [Hexyl isobutyrate] it was greater than 90 µM; in that of `CCOC(=O)CCc1ccccc1` [Ethyl hydrocinnamate], greater than 90 µM. Consider `CCOP(=S)(OCC)SCCSCC` [Disulfoton], for which the CC50 at 24 h is greater than 90 µM (AC50 (uM) modified / 1000, Tox21_110001=Tox21_202343, viability, 1 nM T3 present, 24 h) and greater than 40 µM (AC50 (uM) modified / 1000, Tox21_110001=Tox21_300861, viability, 1 nM T3 present, 24 h).

The molecule `O=C(CCCN1CCN(c2ccc(F)cc2)CC1)NC1c2ccccc2CSc2ccccc21` (stereo not shown) [Monatepil] displayed a CC50 at 24 h (AC50 (uM) modified / 1000) of 11.9 µM. The molecule `COC1=C(OC)C(=O)C(CCCCCCCCCCO)=C(C)C1=O` [Idebenone] registered a CC50 at 24 h (AC50 (uM) modified / 1000) of 35.2 µM. On to `c1csc(C2(N3CCCCC3)CCCCC2)c1` [Tenocyclidine], for which the CC50 at 24 h (AC50 (uM) modified / 1000, Tox21_110001=Tox21_111833, viability, 1 nM T3 present, 24 h) was greater than 50 µM.

For `CN1C[C@H](C(=O)N[C@]2(C)O[C@@]3(O)[C@@H]4CCCN4C(=O)[C@H](Cc4ccccc4)N3C2=O)C[C@@H]2c3cccc4[nH]cc(c34)C[C@H]21` [Dihydroergotamine], where the note is “AC50 (uM) modified / 1000”, the half-maximal cytotoxic concentration (CC50) at 24 h amounted to 19.3 µM.

Under “AC50 (uM) modified / 1000”, `CCC(=O)OCCC(C)CCC=C(C)C` (stereo not shown) [Citronellyl propionate] registered a CC50 at 24 h greater than 90 µM. Take `CC(C)c1ccc(S(=O)(=O)O)cc1` [4-Isopropylbenzenesulfonic acid]: for the setting “AC50 (uM) modified / 1000”, the CC50 at 24 h was greater than 90 µM.

As for `CCC(=O)OCc1ccc(OC)cc1` [Anisyl propionate], the half-maximal cytotoxic concentration (CC50) at 24 h (AC50 (uM) modified / 1000) was greater than 90 µM. For `CCOc1ccc(N=Nc2ccc(/C=C/c3ccc(N=Nc4ccc(OCC)cc4)cc3S(=O)(=O)O)c(S(=O)(=O)O)c2)cc1` [C.I. Direct Yellow 12], the CC50 at 24 h (AC50 (uM) modified / 1000) was determined as 42.7 µM.
